Reference: patent US12391737B2, “Soluble NPY2 receptor agonists” (Boehringer Ingelheim International GmbH, priority 2020, dated 2025)
*1 amine or outer side, *2 acyl side, *3 side chain or, on linkers, in order; H or OH if unused. Where a SMILES comes first, the peptide text is derived from it. Side-chain parts run from the residue outwards. The star is where a group is joined. C18 diacid = O=C(O)CCCCCCCCCCCCCCCCC(=O)*; γGlu = O=C(O)[C@H](CCC(=O)[*:2])N[*:1]; Isovaleryl = CC(C)CC(=O)*; Ahx = NCCCCCC(=O)O

Tests used:
[1] = molecular target: T1, Human Neuropeptide Y2 Receptor (Homo sapiens, UniProt P49146); assay: Radioligand binding competition assay (RLB); conditions: Table 3, 125I-PYY(1-36) competition; read-out: Ki
T1 construct: purchased CHEMICON HTS066M
T1 sequence (P49146 1-381): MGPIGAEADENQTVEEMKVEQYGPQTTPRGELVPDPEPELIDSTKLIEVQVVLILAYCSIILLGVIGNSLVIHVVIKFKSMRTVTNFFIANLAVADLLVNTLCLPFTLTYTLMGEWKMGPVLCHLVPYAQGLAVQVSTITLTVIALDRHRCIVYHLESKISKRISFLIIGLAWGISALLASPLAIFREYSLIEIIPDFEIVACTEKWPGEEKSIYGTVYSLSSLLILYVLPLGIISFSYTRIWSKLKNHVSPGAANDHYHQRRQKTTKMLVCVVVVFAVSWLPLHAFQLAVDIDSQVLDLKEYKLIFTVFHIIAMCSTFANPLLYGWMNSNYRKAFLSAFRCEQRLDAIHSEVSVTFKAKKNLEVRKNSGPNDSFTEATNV
In short: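 Filtration competition binding on membranes from cells expressing the receptor, 0.5 μg protein/well, in 50 mM HEPES, 5 mM MgCl2, 1 mM CaCl2, pH 7.4, with 0.2% ovalbumin. Incubation ran 2 h at room temperature, followed by GF/C filtration and scintillation counting. IC50 came from nonlinear sigmoidal fits.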

Solubility determination = conditions: for Sol6: pH 6; for Sol7: pH 7
In short: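 First, TFA-salt peptide was added to 0.1 M sodium diphosphate (pH 6.4 or 7.0) to 10 mg/ml and shaken 2 h at room temperature. Next, insoluble material was filtered off. Finally, filtrate and control, each 1 mg/ml in 50% acetonitrile, were compared by reversed-phase chromatography.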

Row | SMILES | Ki [1] | Sol6 (Solubility determination) | Sol7 (Solubility determination)
1 | CC(C)CC(=O)N[C@@H](C)C(=O)N1CCC[C@H]1C(=O)N[C@@H](CCC(=O)O)C(=O)N[C@@H](CCCCNC(=O)CCCCCNC(=O)CC[C@H](NC(=O)CCCCCCCCCCCCCCCCC(=O)O)C(=O)O)C(=O)N1CCC[C@H]1C(=O)N[C@@H](CCC(=O)O)C(=O)N[C@@H](CCC(=O)O)C(=O)N[C@@H](CC(=O)O)C(=O)N[C@@H](CC(C)C)C(=O)N[C@H](C(=O)N1CCC[C@H]1C(=O)N[C@@H](CCC(=O)O)C(=O)N[C@@H](CCC(=O)O)C(=O)N[C@@H](CC(C)C)C(=O)N[C@@H](CCC(N)=O)C(=O)N[C@@H](CCCNC(=N)N)C(=O)N[C@@H](Cc1ccc(O)cc1)C(=O)N[C@@H](Cc1ccc(O)cc1)C(=O)N[C@H](C(=O)N[C@@H](CO)C(=O)N[C@@H](CC(C)C)C(=O)N[C@@H](CCCNC(=N)N)C(=O)N[C@@H](Cc1c[nH]cn1)C(=O)N[C@@H](Cc1ccc(O)cc1)C(=O)N[C@@H](Cc1ccc(O)cc1)C(=O)N[C@@H](CC(N)=O)C(=O)N[C@@H](Cc1c[nH]c2ccccc12)C(=O)N[C@@H](CC(C)C)C(=O)N[C@H](C(=O)N[C@@H](CCCNC(=N)N)C(=O)N[C@@H](CCC(N)=O)C(=O)N[C@@H](CCCNC(=N)N)C(=O)N[C@@H](Cc1ccc(O)cc1)C(N)=O)[C@@H](C)O)C(C)C)[C@@H](C)O [Compound 109, N{alpha-4}-(3-methylbutanoyl)-N{epsilon-7}-(6-[(4S)-4-carboxy-4-(17-carboxyheptadecanamido)butanamido]hexanoyl)-[4A,7K,9E,12L,13T,18Q,22V,28Y,30W,31L]-hPYY(4-36)] | 14 nM | 10.0 mg/mL | 8.5 mg/mL
2 | CC(C)CC(=O)N[C@@H](C)C(=O)N1CCC[C@H]1C(=O)N[C@@H](CCC(=O)O)C(=O)N[C@@H](CCCCNC(=O)CCCCCNC(=O)CC[C@H](NC(=O)CCCCCCCCCCCCCCCCC(=O)O)C(=O)O)C(=O)N1CCC[C@H]1C(=O)N[C@@H](CCC(=O)O)C(=O)N[C@@H](CCC(=O)O)C(=O)N[C@@H](CC(=O)O)C(=O)N[C@@H](C)C(=O)N[C@H](C(=O)N1CCC[C@H]1C(=O)N[C@@H](CCC(=O)O)C(=O)N[C@@H](CCC(=O)O)C(=O)N[C@@H](CC(C)C)C(=O)N[C@@H](CCC(N)=O)C(=O)N[C@@H](CCCNC(=N)N)C(=O)N[C@@H](Cc1ccc(O)cc1)C(=O)N[C@@H](Cc1ccc(O)cc1)C(=O)N[C@H](C(=O)N[C@@H](CO)C(=O)N[C@@H](CC(C)C)C(=O)N[C@@H](CCCNC(=N)N)C(=O)N[C@@H](Cc1c[nH]cn1)C(=O)N[C@@H](Cc1ccc(O)cc1)C(=O)N[C@@H](Cc1ccc(O)cc1)C(=O)N[C@@H](CC(N)=O)C(=O)N[C@@H](Cc1c[nH]c2ccccc12)C(=O)N[C@@H](CC(C)C)C(=O)N[C@H](C(=O)N[C@@H](CCCNC(=N)N)C(=O)N[C@@H](CCC(N)=O)C(=O)N[C@@H](CCCNC(=N)N)C(=O)N[C@@H](Cc1ccc(O)cc1)C(N)=O)[C@@H](C)O)C(C)C)[C@@H](C)O [Compound 173, N{alpha-4}-(3-methylbutanoyl)-N{epsilon-7}-(6-[(4S)-4-carboxy-4-(17-carboxyheptadecanamido)butanamido]hexanoyl)-[4A,7K,9E,13T,18Q,22V,28Y,30W,31L]-hPYY(4-36)] | 4.07 nM | 9.2 mg/mL | 9.6 mg/mL
3 | CC[C@H](C)[C@H](NC(=O)[C@H](CCC(=O)O)NC(=O)[C@H](CCC(=O)O)NC(=O)[C@@H]1CCCN1C(=O)[C@H](CO)NC(=O)[C@H](C)NC(=O)[C@H](CC(=O)O)NC(=O)[C@H](C)NC(=O)[C@@H]1CCCN1C(=O)[C@@H]1CCCN1C(=O)[C@H](CCCCNC(=O)CCCCCNC(=O)CC[C@H](NC(=O)CCCCCCCCCCCCCCCCC(=O)O)C(=O)O)NC(=O)[C@H](CCC(=O)O)NC(=O)[C@@H]1CCCN1C(=O)[C@H](C)NC(=O)CC(C)C)C(=O)N[C@@H](CCC(N)=O)C(=O)N[C@@H](CCCNC(=N)N)C(=O)N[C@@H](Cc1ccc(O)cc1)C(=O)N[C@@H](Cc1ccc(O)cc1)C(=O)N[C@H](C(=O)N[C@@H](CO)C(=O)N[C@@H](CC(C)C)C(=O)N[C@@H](CCCNC(=N)N)C(=O)N[C@@H](Cc1c[nH]cn1)C(=O)N[C@@H](Cc1ccc(O)cc1)C(=O)N[C@@H](Cc1ccc(O)cc1)C(=O)N[C@@H](CC(N)=O)C(=O)N[C@@H](Cc1c[nH]c2ccccc12)C(=O)N[C@@H](CC(C)C)C(=O)N[C@H](C(=O)N[C@@H](CCCNC(=N)N)C(=O)N[C@@H](CCC(N)=O)C(=O)N[C@@H](CCCNC(=N)N)C(=O)N[C@@H](Cc1ccc(O)cc1)C(N)=O)[C@@H](C)O)C(C)C [Compound 61, N{alpha-4}-(3-methylbutanoyl)-N{epsilon-7}-(6-[(4S)-4-carboxy-4-(17-carboxyheptadecanamido)butanamido]hexanoyl)-[4A,7K,9P,10A,17I,18Q,22V,28Y,30W,31L]-hPYY(4-36)] | 0.41 nM | 0.1 mg/mL | 8.9 mg/mL

The remaining compounds from weak to strong by Ki [1], led by results:

Row | Ki [1] | Sol6 (Solubility determination) | Sol7 (Solubility determination) | SMILES
4 | 3.07 nM | 9.7 mg/mL | >10.0 mg/mL | CC[C@H](C)[C@H](NC(=O)[C@H](CCC(=O)O)NC(=O)[C@H](CCC(=O)O)NC(=O)[C@@H]1CCCN1C(=O)[C@H](CCC(=O)O)NC(=O)[C@H](C)NC(=O)[C@H](C)NC(=O)[C@H](C)NC(=O)[C@H](CCC(=O)O)NC(=O)[C@@H]1CCCN1C(=O)[C@H](CCCCNC(=O)CCCCCNC(=O)CC[C@H](NC(=O)CCCCCCCCCCCCCCCCC(=O)O)C(=O)O)NC(=O)[C@H](CCC(=O)O)NC(=O)[C@@H]1CCCN1C(=O)[C@H](C)NC(=O)CC(C)C)C(=O)N[C@@H](CCC(N)=O)C(=O)N[C@@H](CCCNC(=N)N)C(=O)N[C@@H](Cc1ccc(O)cc1)C(=O)N[C@@H](Cc1ccc(O)cc1)C(=O)N[C@H](C(=O)N[C@@H](CO)C(=O)N[C@@H](CC(C)C)C(=O)N[C@@H](CCCNC(=N)N)C(=O)N[C@@H](Cc1c[nH]cn1)C(=O)N[C@@H](Cc1ccc(O)cc1)C(=O)N[C@@H](Cc1ccc(O)cc1)C(=O)N[C@@H](CC(N)=O)C(=O)N[C@@H](Cc1c[nH]c2ccccc12)C(=O)N[C@@H](CC(C)C)C(=O)N[C@H](C(=O)N[C@@H](CCCNC(=N)N)C(=O)N[C@@H](CCC(N)=O)C(=O)N[C@@H](CCCNC(=N)N)C(=O)N[C@@H](Cc1ccc(O)cc1)C(N)=O)[C@@H](C)O)C(C)C [Compound 124, N{alpha-4}-(3-methylbutanoyl)-N{epsilon-7}-(6-[(4S)-4-carboxy-4-(17-carboxyheptadecanamido)butanamido]hexanoyl)-[4A,7K,9E,10A,11A,13E,17I,18Q,22V,28Y,30W,31L]-hPYY(4-36)] (Isovaleryl-APEK([Ahx-γGlu-C18 diacid])PEAAAEPEEIQRYYVSLRHYYNWLTRQRY-NH2)
5 | 2.16 nM | 8.6 mg/mL | 8.2 mg/mL | CC(C)CC(=O)N[C@@H](C)C(=O)N1CCC[C@H]1C(=O)N[C@@H](CCC(=O)O)C(=O)N[C@@H](CCCCNC(=O)CCCCCNC(=O)CC[C@H](NC(=O)CCCCCCCCCCCCCCCCC(=O)O)C(=O)O)C(=O)N1CCC[C@H]1C(=O)N[C@@H](CCC(=O)O)C(=O)N[C@@H](CCC(=O)O)C(=O)N[C@@H](C)C(=O)N[C@@H](C)C(=O)N[C@@H](CO)C(=O)N1CCC[C@H]1C(=O)N[C@@H](CCC(=O)O)C(=O)N[C@@H](CCC(=O)O)C(=O)N[C@@H](CC(C)C)C(=O)N[C@@H](CCC(N)=O)C(=O)N[C@@H](CCCNC(=N)N)C(=O)N[C@@H](Cc1ccc(O)cc1)C(=O)N[C@@H](Cc1ccc(O)cc1)C(=O)N[C@H](C(=O)N[C@@H](C)C(=O)N[C@@H](CC(C)C)C(=O)N[C@@H](CCCNC(=N)N)C(=O)N[C@@H](Cc1c[nH]cn1)C(=O)N[C@@H](Cc1ccc(O)cc1)C(=O)N[C@@H](Cc1ccc(O)cc1)C(=O)N[C@@H](CC(N)=O)C(=O)N[C@@H](Cc1c[nH]c2ccccc12)C(=O)N[C@@H](CC(C)C)C(=O)N[C@H](C(=O)N[C@@H](CCCNC(=N)N)C(=O)N[C@@H](CCC(N)=O)C(=O)N[C@@H](CCCNC(=N)N)C(=O)N[C@@H](Cc1ccc(O)cc1)C(N)=O)[C@@H](C)O)C(C)C [Compound 73, N{alpha-4}-(3-methylbutanoyl)-N{epsilon-7}-(6-[(4S)-4-carboxy-4-(17-carboxyheptadecanamido)butanamido]hexanoyl)-[4A,7K,9E,11A,18Q,22V,23A,28Y,30W,31L]-hPYY(4-36)]
